This is an account of results in ChEMBL document CHEMBL5728173, “N4-hydroxycytidine and derivatives and anti-viral uses related thereto” (2020).

The EC50 is the concentration that produces a half-maximal response.

The first test is described as follows: CPE Assay: Primary cytopathic effect (CPE) reduction assay. Four-concentration CPE inhibition assays are performed. Confluent or near-confluent cell culture monolayers in 96-well disposable microplates are prepared. (In general: Protection from cytopathic effect is a common read-out in antiviral testing.)
Regarding `CC1(O)[C@@H](O)[C@@H](CO)O[C@H]1n1ccc(NO)nc1=O` (stereo partly drawn), a half-maximal response (EC50) required 72 µM.
`O=c1nc(NO)cc[nH]1` [N4-hydroxycytosine] came in with an EC50 of over 78 µM.
Same read-out and setting: next, `CC1(O)[C@H]2OP(=O)(Oc3ccccc3)OC[C@H]2O[C@H]1n1ccc(=O)[nH]c1=O` (stereo partly drawn): over 78 µM; `CNC(=O)ONc1ccn([C@@H]2O[C@H](CO)[C@H](O)C2O)c(=O)n1` (stereo partly drawn): 32 µM.
In turn, `CC(C)(C)C(=O)OCOP(=O)(OCOC(=O)C(C)(C)C)OC[C@@]1(N=[N+]=[N-])O[C@@H](n2ccc(=O)[nH]c2=O)C(O)[C@H]1O` (stereo partly drawn) displayed an EC50 of 56 µM.
`CCCCCCCCCCCCCCCCOCCCOP(=O)(O)OC[C@H]1O[C@@H](n2ccc(NO)nc2=O)C(O)[C@H]1O` (stereo partly drawn): the EC50 is 34.5 µM.
The molecule `O=c1ccn([C@@H]2O[C@H](CO)[C@H](O)C23CC3(F)F)c(=O)[nH]1` (stereo partly drawn) had an EC50 of over 78 µM.
Consider `C#CC1(O)[C@@H](O)[C@@H](COP(=O)(OCOC(=O)C(C)(C)C)OCOC(=O)C(C)(C)C)O[C@H]1n1ccc(=O)[nH]c1=O` (stereo partly drawn), for which the response was half-maximal at 64.4 µM (EC50).
In turn, `CC(C)(C)C(=O)OCOP(=O)(OCOC(=O)C(C)(C)C)OC[C@H]1O[C@@H](n2ccc(=O)[nH]c2=O)C(C)(F)[C@H]1O` (stereo partly drawn) yielded an EC50 of 58 µM.
Consider `CCCCCCCNC(=O)OC[C@H]1O[C@@H](n2ccc(NO)nc2=O)C(O)[C@H]1O` (stereo partly drawn), for which the EC50 was over 78 µM.
`CC1(F)[C@@H](O)[C@@H](CO)O[C@H]1n1ccc(NO)nc1=O` (stereo partly drawn) gave an EC50 of over 75 µM.
In the case of `CN(C)C(=O)ONc1ccn([C@@H]2O[C@H](CO)[C@H](O)C2O)c(=O)n1` (stereo partly drawn), the concentration for a half-maximal effect (EC50) is 25 µM. This counts as double-digit micromolar.
On to `CCCCCCCCCCCCCCCCNC(=O)ONc1ccn([C@@H]2O[C@H](CO)[C@H](O)C2O)c(=O)n1` (stereo partly drawn), for which the EC50 was over 78 µM.
As to `O=c1nc(NO)ccn1[C@@H]1O[C@H](COP2(=O)OCc3ccccc3O2)[C@H](O)C1O` (stereo partly drawn), a half-maximal response (EC50) required 10.8 µM.
`CCCCCCCCC(=O)OC[C@H]1O[C@@H](n2ccc(NO)nc2=O)C(O)[C@H]1O` (stereo partly drawn) returned an EC50 of 0.3 µM.
For `O=c1nc(NO)ccn1[C@@H]1O[C@H](CO)[C@H](O)C1F` (stereo partly drawn), the EC50 was over 75 µM.
Same read-out and setting: then `NNc1ccn([C@@H]2O[C@H](CO)[C@H](O)C2O)c(=O)n1` (stereo partly drawn), with over 78 µM; and `CONc1ccn([C@@H]2O[C@H](CO)[C@H](O)C2(C)O)c(=O)n1` (stereo partly drawn), with over 75 µM.
`CCOP(=O)(OCC)OC[C@H]1O[C@@H](n2ccc(NO)nc2=O)C(O)[C@H]1O` (stereo partly drawn) yielded an EC50 of over 78 µM.
In turn, `CCCCCCCNC(=O)ONc1ccn([C@H]2O[C@H](CO)[C@H](O)C2O)c(=O)n1` (stereo partly drawn) displayed an EC50 of 38 µM.
The molecule `CCCCCCCNC(=O)ONc1ccn([C@@H]2O[C@H](CO)[C@H](O)C2O)c(=O)n1` (stereo partly drawn) showed an EC50 of 29 µM.

The nature of a further test: antiviral activity: Several derivatives of EIDD-01931 have shown antiviral activity in screening against various viruses. Activity data is shown in the tables below. Norovirus SARS Coronavirus GT1 Orbani HG23 Vero 76.
Turning to `CC1(O)[C@@H](O)[C@@H](CO)O[C@H]1n1ccc(NO)nc1=O` (stereo partly drawn), the EC50 is over 366 µM.
`O=c1nc(NO)ccn1[C@@H]1O[C@H](CO)[C@H](O)C1O` (stereo partly drawn) showed a concentration for a half-maximal effect (EC50) of over 3860 µM.
